# Target: T1, hTDO2 (Homo sapiens, UniProt P48775)
# T1 construct: endogenous in cells; host or cells: A172 human brain glioblastoma cells (ATCC CRL-1620)
# Assay: Cellular assay for TDO2 activity determination in A172 cells
# Assay type: cell-based
# Conditions: human glioblastoma A172 cells naturally expressing hTDO2; overnight incubation; kynurenine by absorbance at 480 nm
# Method: The compounds of formula I inhibit the activity of human TDO2 in cells that constitutively express TDO2, such as A172 cells. A172 is a cell line derived from human brain glioblastoma cells. The cells are available from the American Type Culture Collection (ATCC®) as CRL-1620™.
# The assay (adapted from Pilotte L et al., Proc Natl Acad Sci USA, 2012, 109(7), 2497-502) was performed in 96-well flat bottom plates seeded with human glioblastoma A172 cells, naturally expressing hTDO2 (prepared as described in Tilman et al., Mol Cancer, 2007, 17(6), 80), at a concentration of 1.25×10^4 cells/well in a final volume of 200 μL. To determine TDO, the cells were incubated overnight at 37° C. at 5% CO2 in IMDM (Invitrogen) supplemented with 2% FBS and 2% penicillin/streptomycin in the presence of the compounds of the present invention, at different concentrations.
# The plates were then centrifuged 5 min at 1000 rpm, and 100 μL of the supernatant were collected in a conical plate, 30 μL of TCA 30% were added and a further centrifuged at 3000×g for 10 minutes. 100 μL of the supernatant were collected in a flat bottomed plate and 100 μL of 2% (w/v) 4-(dimethylamino)-benzaldehyde in acetic acid and incubated for 5 min at room temperature. Kynurenine concentrations were determined by measuring the absorbance at 480 nm. A standard curve was made with pure kynurenine. The TDO activity was measured as described above using ten serial concentrations of the compounds of the present invention. Data were fitted using the Prism™ software (GraphPad Software, Inc.) using standard parameters.
# The biological activity of representative compounds in human brain glioblastoma cells as determined in the above-referenced assay is summarized in the following table: […]
# T1 sequence (P48775 whole entry): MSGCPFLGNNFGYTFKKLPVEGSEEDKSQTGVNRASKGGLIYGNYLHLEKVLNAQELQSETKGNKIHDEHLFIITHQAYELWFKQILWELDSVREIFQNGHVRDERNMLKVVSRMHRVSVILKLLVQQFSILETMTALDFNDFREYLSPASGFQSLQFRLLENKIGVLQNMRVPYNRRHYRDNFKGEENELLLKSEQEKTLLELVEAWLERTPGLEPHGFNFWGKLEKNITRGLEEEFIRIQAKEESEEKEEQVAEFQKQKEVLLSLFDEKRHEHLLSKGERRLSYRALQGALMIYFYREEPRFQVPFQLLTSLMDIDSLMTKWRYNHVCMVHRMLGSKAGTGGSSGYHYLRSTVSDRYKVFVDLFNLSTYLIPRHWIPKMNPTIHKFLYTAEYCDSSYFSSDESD
row,IC50 [nM],Structure (SMILES)
1,27,"CC1c2cc(-c3c[nH]c4cc(F)ccc34)ccc2S(=O)(=O)N1C1CNC1 (single isomer, unassigned; (+)) [Example 92, (+)-2-(azetidin-3-yl)-5-(6-fluoro-1H-indol-3-yl)-3-methyl-2,3-dihydrobenzo[d]isothiazole 1,1-dioxide]"
2,91,"CC1c2cc(-c3c[nH]c4cc(F)ccc34)ccc2S(=O)(=O)N1CCC(=O)N1CCNCC1 (single isomer, unassigned; (+)) [Example 49, (+)-3-(5-(6-fluoro-1H-indol-3-yl)-3-methyl-1,1-dioxido-benzo [d]isothiazol-2(3H)-yl)-1-(piperazin-1-yl)propan-1-one]"
3,260,"CC1c2cc(-c3c[nH]c4cc(F)ccc34)ccc2S(=O)(=O)N1C1CNC1 (single isomer, unassigned; (-)) [Example 91, (−)-2-(azetidin-3-yl)-5-(6-fluoro-1H-indol-3-yl)-3-methyl-2,3-dihydrobenzo[d]isothiazole 1,1-dioxide]"
4,221,"NCCN1Cc2cc(-c3c[nH]c4cc(F)ccc34)ccc2S1(=O)=O [Example 31, 2-(2-aminoethyl)-5-(6-fluoro-1H-indol-3-yl)-2,3-dihydrobenzo[d]isothiazole 1,1-dioxide]"
5,142,"CNC(=O)CN1C(C)c2cc(-c3c[nH]c4cc(F)ccc34)ccc2S1(=O)=O (single isomer, unassigned; (+)) [Example 112, (+)-2-(5-(6-fluoro-1H-indol-3-yl)-3-methyl-1,1-dioxidobenzo[d]isothiazol-2(3H)-yl)-Nmethylacetamide]"
6,309,"CC1c2cc(-c3c[nH]c4cc(F)ccc34)ccc2S(=O)(=O)N1CCS(N)(=O)=O (single isomer, unassigned; (+)) [Example 61, (+)-2-(5-(6-fluoro-1H-indol-3-yl)-3-methyl-1,1-dioxidobenzo[d]isothiazol-2(3H)-yl)ethane-1-sulfonamide]"
7,9500,"Cc1cc(O)n(CCN2C(C)c3cc(-c4c[nH]c5cc(F)ccc45)ccc3S2(=O)=O)n1 (single isomer, unassigned; (+)) [Example 67, (+)-5-(6-fluoro-1H-indol-3-yl)-2-(2-(5-hydroxy-3-methyl-1H-pyrazol-1-yl)ethyl)-3-methyl-2,3-dihydrobenzo[d]isothiazole 1,1-dioxide]"
8,58,"CC1c2cc(-c3c[nH]c4cc(F)ccc34)ccc2S(=O)(=O)N1CC1(C)COC(=O)N1 (single isomer, unassigned; (+)) [Example 89, (+)-4-((5-(6-fluoro-1H-indol-3-yl)-3-methyl-1,1-dioxidobenzo[d]isothiazol-2(3H)-yl)methyl)-4-methyloxazolidin-2-one]"
9,192,"O=S1(=O)c2ccc(-c3c[nH]c4cc(F)ccc34)cc2CN1C1CCNCC1 [Example 36, 5-(6-fluoro-1H-indol-3-yl)-2-(piperidin-4-yl)-2,3-dihydrobenzo[d]isothiazole 1,1-dioxide]"
10,191,"CC1c2cc(-c3c[nH]c4cc(F)ccc34)ccc2S(=O)(=O)N1CCN1CCOCC1 (single isomer, unassigned; (+)) [Example 118, (+)-5-(6-fluoro-1H-indol-3-yl)-3-methyl-2-(2-morpholinoethyl)-2,3-dihydrobenzo[d]isothiazole 1,1-dioxide]"
11,306,"CC1c2cc(-c3c[nH]c4cc(F)ccc34)ccc2S(=O)(=O)N1CC[S+](C)[O-] (single isomer, unassigned; (-)) [Example 56, (−)-5-(6-fluoro-1H-indol-3-yl)-3-methyl-2-(2-(methylsulfinyl)ethyl)-2,3-dihydrobenzo[d]isothiazole 1,1-dioxide]"
12,45,"CNC(=O)CN1C(C)c2cc(-c3c[nH]c4cc(F)ccc34)ccc2S1(=O)=O (single isomer, unassigned; (-)) [Example 111, (−)-2-(5-(6-fluoro-1H-indol-3-yl)-3-methyl-1,1-dioxidobenzo[d]isothiazol-2(3H)-yl)-N-methylacetamide]"
13,120,"CNC(=O)C(N)CN1C(C)c2cc(-c3c[nH]c4cc(F)ccc34)ccc2S1(=O)=O (single isomer, unassigned; (+)) [Example 104, (+) 2-amino-3-(5-(6-fluoro-1H-indol-3-yl)-3-methyl-1,1-dioxidobenzo[d]isothiazol-2(3H)-yl)-N-methylpropanamide]"
14,397,"CC1c2cc(-c3c[nH]c4cc(F)ccc34)ccc2S(=O)(=O)N1Cc1ccccn1 (stereo not shown) [Example 149, 5-(6-fluoro-1H-indol-3-yl)-3-methyl-2-(pyridin-2-ylmethyl)-2,3-dihydrobenzo[d]isothiazole 1,1-dioxide]"
15,254,"CC(=O)N1CCC(N2C(C)c3cc(-c4c[nH]c5cc(F)ccc45)ccc3S2(=O)=O)C1 (single isomer, unassigned; (+)) [Example 74, (+)-1-(3-(5-(6-fluoro-1H-indol-3-yl)-3-methyl-1,1-dioxidobenzo[d]isothiazol-2(3H)-yl)pyrrolidin-1-yl)ethanone]"
16,2070,"NC(=O)C1NS(=O)(=O)c2ccc(-c3c[nH]c4cc(F)ccc34)cc21 (single isomer, unassigned; (-)) [Example 15, (−)-5-(6-fluoro-1H-indol-3-yl)-2,3-dihydrobenzo[d]-Isothiazole-3-carboxamide 1,1-dioxide]"
17,182,"O=S1(=O)c2ccc(-c3c[nH]c4cc(F)ccc34)cc2C(CO)N1CCO (single isomer, unassigned; (+)) [Example 131, (+)-5-(6-fluoro-1H-indol-3-yl)-2-(2-hydroxyethyl)-3-(hydroxymethyl)-2,3-dihydrobenzo[d]isothiazole 1,1-dioxide]"
18,133,"CNS(=O)(=O)CCN1C(C)c2cc(-c3c[nH]c4cc(F)ccc34)ccc2S1(=O)=O (single isomer, unassigned; (+)) [Example 60, (+)-2-(5-(6-fluoro-1H-indol-3-yl)-3-methyl-1,1-dioxidobenzo[d]isothiazol-2(3H)-yl)-N-methylethane-1-sulfonamide]"
19,507,"CNC(=O)C(CN1C(C)c2cc(-c3c[nH]c4cc(F)ccc34)ccc2S1(=O)=O)OC (single isomer, unassigned; (-)) [Example 106, (−)-3-(5-(6-fluoro-1H-indol-3-yl)-3-methyl-1,1-dioxidobenzo[d]isothiazol-2(3H)-yl)-2-methoxy-N-methylpropanamide]"
20,647,"COC(=O)NCC1NS(=O)(=O)c2ccc(-c3c[nH]c4cc(F)ccc34)cc21 (single isomer, unassigned; (+)) [Example 22, (+)-methyl ((5-(6-fluoro-1H-indol-3-yl)-1,1-dioxido-2,3-dihydrobenzo[d]isothiazol-3-yl)methyl)carbamate]"
21,240,"O=S1(=O)NC(C2CC2)c2cc(-c3c[nH]c4cc(F)ccc34)ccc21 (single isomer, unassigned; (+)) [Example 10, (+)-3-cyclopropyl-5-(6-fluoro-1H-indol-3-yl)-2,3-dihydrobenzo[d]isothiazole 1,1-dioxide]"
22,71,"CNC(=O)CCN1C(C)c2cc(-c3c[nH]c4cc(F)ccc34)ccc2S1(=O)=O (single isomer, unassigned; (+)) [Example 45, (+)-3-(5-(6-fluoro-1H-indol-3-yl)-3-methyl-1,1-dioxidobenzo[d]-isothiazol-2(3H)-yl)-N-methylpropanamide]"
23,308,"CC1c2cc(-c3c[nH]c4cc(F)ccc34)ccc2S(=O)(=O)N1CCN1CCOCC1 (single isomer, unassigned; (-)) [Example 117, (−)-5-(6-fluoro-1H-indol-3-yl)-3-methyl-2-(2-morpholinoethyl)-2,3-dihydrobenzo[d]isothiazole 1,1-dioxide]"
24,255,"NC(=O)CCN1Cc2cc(-c3c[nH]c4cc(F)ccc34)ccc2S1(=O)=O [Example 44, 3-(5-(6-fluoro-1H-indol-3-yl)-1,1-dioxidobenzo[d]isothiazol-2(3H)-yl)propanamide]"
25,859,"O=S1(=O)c2ccc(-c3c[nH]c4cc(F)ccc34)cc2CN1C1CNC1 [Example 40, 2-(azetidin-3-yl)-5-(6-fluoro-1H-indol-3-yl)-2,3-dihydrobenzo[d]isothiazole 1,1-dioxide]"
26,114,"CC1c2cc(-c3c[nH]c4cc(F)ccc34)ccc2S(=O)(=O)N1C[C@H](O)CO (single isomer, unassigned) [Example 95]"
27,415,"CC1c2cc(-c3c[nH]c4cc(F)ccc34)ccc2S(=O)(=O)N1CC1CCNCC1 (single isomer, unassigned; (-)) [Example 77, (−) 5-(6-fluoro-1H-indol-3-yl)-3-methyl-2-(piperidin-4-ylmethyl)-2,3-dihydrobenzo[d]isothiazole 1,1-dioxide]"
28,342,"CC(=O)N1CCC(N2C(C)c3cc(-c4c[nH]c5cc(F)ccc45)ccc3S2(=O)=O)CC1 (single isomer, unassigned; (+)) [Example 71, (+)-1-(4-(5-(6-fluoro-1H-indol-3-yl)-3-methyl-1,1-dioxidobenzo[d]isothiazol-2(3H)-yl)piperidin-1-yl)ethanone]"

# Source: patent US9873690B2, “3-indol substituted derivatives, pharmaceutical compositions and methods for use” (Pfizer Inc., priority 2015, dated 2018)
